In article PMC12467033, “Exploring the Inhibitory Potential of Six Porphyrin Compounds Against α-Amylase and α-Glucosidase Linked to Diabetes” (Biomolecules, 2025):
Values joined by “and” are separate entries in the source; they are usually repeats but may differ in a detail not shown here. Equal entries are not always repeated. Where two headings read alike, the source gives them in different places.

Key:
α-amylase [1] = biological target: T1, α-amylase (Sus scrofa, UniProt P00690); assay: FTIR secondary structure analysis of α-AMY complexes; conditions: enzyme–porphyrin molar ratio 1:2, amide I band
T1 sequence (P00690 16-511): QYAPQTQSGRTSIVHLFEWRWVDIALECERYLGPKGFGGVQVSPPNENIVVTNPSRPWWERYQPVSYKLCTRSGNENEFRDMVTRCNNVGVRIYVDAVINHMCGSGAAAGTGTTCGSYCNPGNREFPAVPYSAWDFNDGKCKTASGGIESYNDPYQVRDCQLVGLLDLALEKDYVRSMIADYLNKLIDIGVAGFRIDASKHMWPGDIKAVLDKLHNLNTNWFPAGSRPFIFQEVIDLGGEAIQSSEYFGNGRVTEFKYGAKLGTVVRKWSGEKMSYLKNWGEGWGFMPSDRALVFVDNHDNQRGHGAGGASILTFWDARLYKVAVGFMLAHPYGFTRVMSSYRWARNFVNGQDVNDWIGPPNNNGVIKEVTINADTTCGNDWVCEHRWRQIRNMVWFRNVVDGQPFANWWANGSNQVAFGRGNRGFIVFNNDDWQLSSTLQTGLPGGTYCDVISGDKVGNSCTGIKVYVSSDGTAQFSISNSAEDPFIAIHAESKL
Source text: A molar ratio of 1:2 (α-amylase/α-glucosidase)–porphyrin solution was placed in a cryocentrifugal concentrator and the dried solid sample was mixed with dry KBr and measured using a Nicolet IS-50 FTIR Spectrometer (ThermoFisher, Waltham, MA, USA) with a scanning range of 4000–400 cm^−1 and a resolution of 4 cm^−1. The overlapping peaks in the amide I band (1700–1600 cm^−1) were further analyzed into multiple feature sub-peaks, and quantitative analysis of the relative content of various secondary structures in proteins using curve fitting methods was performed.

α-glucosidase [2] = biological target: T2, α-glucosidase (Saccharomyces cerevisiae, UniProt P53341); assay: Fluorescence quenching, binding and thermodynamics with α-glucosidase; conditions: for binding constants K: 310 K; for quenching mechanism of α-glucosidase fluorescence: Stern–Volmer plots; for quenching mechanism of α-glucosidase fluorescence / ΔH^0 / ΔS^0: 298–310 K; for ΔH^0 / ΔS^0: Van’t Hoff
T2 sequence (P53341 whole entry): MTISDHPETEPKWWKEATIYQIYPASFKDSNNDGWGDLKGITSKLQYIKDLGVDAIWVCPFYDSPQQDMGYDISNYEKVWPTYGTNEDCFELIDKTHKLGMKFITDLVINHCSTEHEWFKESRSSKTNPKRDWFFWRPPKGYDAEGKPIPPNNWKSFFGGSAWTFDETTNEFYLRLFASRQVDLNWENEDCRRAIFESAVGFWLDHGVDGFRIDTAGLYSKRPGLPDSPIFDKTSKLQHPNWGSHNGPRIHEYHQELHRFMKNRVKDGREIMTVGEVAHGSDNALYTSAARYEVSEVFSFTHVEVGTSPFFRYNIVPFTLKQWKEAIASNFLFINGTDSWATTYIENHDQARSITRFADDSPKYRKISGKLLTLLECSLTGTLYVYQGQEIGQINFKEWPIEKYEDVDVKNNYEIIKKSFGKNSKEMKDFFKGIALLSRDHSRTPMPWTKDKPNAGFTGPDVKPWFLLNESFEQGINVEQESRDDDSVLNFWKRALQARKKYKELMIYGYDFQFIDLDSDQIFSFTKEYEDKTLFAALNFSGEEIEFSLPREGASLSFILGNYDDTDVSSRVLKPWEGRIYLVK
Description: In the α-amylase experiment, a series of porphyrins and amylase (200 U/L) were mixed in a volume ratio of 1:1. In the α-glucosidase experiment, the glucosidase concentration was 400 U/L, mixed in a volume ratio of 1:1; the samples were maintained at three different temperatures (298, 304, and 310 K) for 30 min, with excitation at 280 nm and emission scanning from 300 to 500 nm.
(§1) The Stern–Volmer equation [35] was adopted to determine the quenching mechanisms between six porphyrin compounds and both enzymes in the experimental group, with Formula (6):(6) F0/F=1+Ksv[Q]=1+Kqτ0[Q]
(§2) The Stern–Volmer equation was adapted based on experimental data to more accurately characterize the quenching behavior [36], with Formula (7):(7) F0/F=e^Ksv[Q]=e^Kqτ0[Q]
(§3) In the formula, the fluorescence quenching ratio was calculated as F0/F, where F0 corresponds to the emission intensity of pure α-amylase solution (control) and F denotes the intensity measured after the incremental addition of porphyrin ligands. KSV and Kq denote the Stern–Volmer quenching constant and the bimolecular quenching rate constant, respectively, τ0 (10^−8 s) is the average fluorescence lifetime of the fluorophore in the absence of quencher, and [Q] indicates the concentration of porphyrin compounds.
(§4) Due to the presence of an internal filtration effect, a decrease in the fluorescence intensity of the system may occur. Therefore, all fluorescence data were corrected using Formula (8) to eliminate the internal filtration effect.(8) Fcor=Fobse^(Aex+Aem)/2
(§5) The evaluation of the interaction forces between porphyrin compounds and the two enzymes can be achieved by calculating thermodynamic parameters. When both ΔH^0 and ΔS^0 are positive, the predominant interaction force is hydrophobic. When both ΔH^0 and ΔS^0 are negative, the main forces are hydrogen bonding and van der Waals forces. When ΔH^0 < 0 and ΔS^0 > 0, the primary interaction is electrostatic attraction.
(§6) The thermodynamic parameters were calculated using Formulas (9) and (10), and then the Van’t Hoff plot for the interactions between the porphyrin compounds and the two enzymes was generated by plotting lnKa on the Y-axis versus 1/T on the X-axis.(9) lnKa=−ΔH^0/RT+ΔS^0/R (10) ΔG^0=ΔH^0−TΔS^0=−RTlnKa

α-amylase [3] = biological target: T1, α-amylase; assay: Three-dimensional fluorescence spectroscopy of α-amylase complexes; conditions: 298 K; TAPP 2.5, THPP 10, TCPP 10, Fe–TCPP 12.5, Ni–TCPP 17.5, Cu–TCPP 10 μg/mL
α-amylase [4] = biological target: T1, α-amylase; assay: Fluorescence quenching, binding and thermodynamics with α-amylase; conditions: for quenching mechanism of α-amylase fluorescence: Stern–Volmer plots; for quenching mechanism of α-amylase fluorescence / ΔH^0 / ΔS^0: 298–310 K; for ΔH^0 / ΔS^0: Van’t Hoff
Source text: In the α-amylase experiment, a series of porphyrins and amylase (200 U/L) were mixed in a volume ratio of 1:1.
as §1, §2, §3, §4, §5, §6

α-glucosidase [5] = biological target: T2, α-glucosidase; assay type: biochemical; conditions: for type of inhibition of α-glucosidase: Lineweaver–Burk plots; for reversibility of inhibition of α-glucosidase: enzyme 100–400 U/L, substrate 5 mmol/L; for Kis: enzyme–substrate complex inhibition constant
Source text: In the experiment, the concentration of the fixed substrate Gal-G2-α-CNP/pNPG solution was 5 mmol/L, and the concentrations of the two enzymes (100, 200, 300, 400 U/L) were used to determine the effect of different concentrations of porphyrins on enzyme activity. The concentration of the enzyme was 200 U/L, and the concentration of the substrate Gal-G2-α-CNP/pNPG solution (2.5, 5, 7.5, 10 mmol/L) was used to determine the effect of different concentrations of porphyrins on the enzyme-catalyzed substrate activity.
Upon identifying the type of inhibition, the kinetic equations vary for different inhibition types.
In the formula, v, Vmax, Km, Ki, and Kis represent the reaction rate, maximum reaction rate, Michaelis constant, and free enzyme inhibition constant, respectively, and the binding enzyme inhibition constant. [S] denotes the substrate concentration. [I] denotes the inhibitor concentration.

## Nc1ccc(-c2c3nc(c(-c4ccc(N)cc4)c4ccc([nH]4)c(-c4ccc(N)cc4)c4nc(c(-c5ccc(N)cc5)c5ccc2[nH]5)C=C4)C=C3)cc1 [TAPP]
α-amylase [1]
  Random Coil: 9.94% and 9.94 ± 0.02%
  α-Helix: 22.45 ± 0.07%
  β-Antiparallel: 18.98% and 18.98 ± 0.04%
  β-Sheet: 14.62 ± 0.03%
  β-Turn: 34.00 ± 0.09%
α-glucosidase [2]
  binding constants K: (0.65 ± 0.02) × 10^5 L·mol^−1
  quenching mechanism of α-glucosidase fluorescence: static quenching
  ΔH^0: -22.23 ± 0.019 kcal/mol
  ΔS^0: −207.76 ± 0.14 J/mol/k
α-glucosidase [2]; T 298 K
  Kq: 6.25 ± 0.04 ×10^12 L/mol/s
  Ksv: 6.25 ± 0.04 ×10^4 L/mol
  n (number of binding sites): 1.14
  ΔG^0: -7.424 ± 0.019 kcal/mol
α-glucosidase [2]; T 304 K
  Kq: 5.71 ± 0.01 ×10^12 L/mol/s
  Ksv: 5.71 ± 0.01 ×10^4 L/mol
  n (number of binding sites): 1.09
  ΔG^0: -7.165 ± 0.012 kcal/mol
α-glucosidase [2]; T 310 K
  Kq: 5.66 ± 0.02 ×10^12 L/mol/s
  Ksv: 5.66 ± 0.02 ×10^4 L/mol
  n (number of binding sites): 1.01
  ΔG^0: -6.826 ± 0.012 kcal/mol
α-amylase [3]
  Peak 1 Fluorescence Intensity: 317.2
  Peak 2 Fluorescence Intensity: 7.013
α-amylase [4]
  quenching mechanism of α-amylase fluorescence: pure static quenching
  ΔH^0: -29.935 ± 0.0287 kcal/mol
  ΔS^0: −291.29 ± 0.12 J/mol/k
α-amylase [4]; T 298 K
  Kq: 4.07 ± 0.05 ×10^12 L/mol/s
  Ksv: 4.07 ± 0.05 ×10^4 L/mol
  n (number of binding sites): 1.48
  ΔG^0: -9.168 ± 0.0263 kcal/mol
α-amylase [4]; T 304 K
  Kq: 3.37 ± 0.02 ×10^12 L/mol/s
  Ksv: 3.37 ± 0.02 ×10^4 L/mol
  n (number of binding sites): 1.40
  ΔG^0: -8.817 ± 0.0287 kcal/mol
α-amylase [4]; T 310 K
  Kq: 3.07 ± 0.09 ×10^12 L/mol/s
  Ksv: 3.07 ± 0.09 ×10^4 L/mol
  n (number of binding sites): 1.31
  ΔG^0: -8.329 ± 0.0239 kcal/mol
α-glucosidase [5]; C 12.5 μg/mL
  Vmax: 0.0791 ± 0.0021 ΔOD/min
α-glucosidase [5]; C 15 μg/mL
  Vmax: 0.0767 ± 0.0013 ΔOD/min
α-glucosidase [5]; C 17.5 μg/mL
  Vmax: 0.0736 ± 0.0015 ΔOD/min
α-glucosidase [5]; C 20 μg/mL
  Vmax: 0.0711 ± 0.0011 ΔOD/min
α-glucosidase [5]; C 22.5 μg/mL
  Vmax: 0.0688 ± 0.0012 ΔOD/min
α-glucosidase [5]
  type of inhibition of α-glucosidase: mixed type
  reversibility of inhibition of α-glucosidase: reversible inhibition
  Kis: 55.1227 ± 0.1247 µg/mL

## O=C(O)c1ccc(-c2c3nc(c(-c4ccc(C(=O)O)cc4)c4ccc([nH]4)c(-c4ccc(C(=O)O)cc4)c4nc(c(-c5ccc(C(=O)O)cc5)c5ccc2[nH]5)C=C4)C=C3)cc1 [TCPP]
α-amylase [1]
  Random Coil: 19.84 ± 0.06%
  α-Helix: 10.24 ± 0.02%
  β-Antiparallel: 11.75 ± 0.03%
  β-Sheet: 18.51 ± 0.05%
  β-Turn: 39.66 ± 0.09%
α-glucosidase [2]
  binding constants K: (0.97 ± 0.02) × 10^5 L·mol^−1
  quenching mechanism of α-glucosidase fluorescence: static quenching
  ΔH^0: -40.504 ± 0.0239 kcal/mol
  ΔS^0: −451.52 ± 0.12 J/mol/k
α-glucosidase [2]; T 298 K
  Kq: 7.45 ± 0.04 ×10^12 L/mol/s
  Ksv: 7.45 ± 0.04 ×10^4 L/mol
  n (number of binding sites): 1.30
  ΔG^0: -8.368 ± 0.014 kcal/mol
α-glucosidase [2]; T 304 K
  Kq: 4.90 ± 0.02 ×10^12 L/mol/s
  Ksv: 4.90 ± 0.02 ×10^4 L/mol
  n (number of binding sites): 1.19
  ΔG^0: -7.651 ± 0.017 kcal/mol
α-glucosidase [2]; T 310 K
  Kq: 4.22 ± 0.09 ×10^12 L/mol/s
  Ksv: 4.22 ± 0.09 ×10^4 L/mol
  n (number of binding sites): 1.07
  ΔG^0: -7.075 ± 0.012 kcal/mol
α-amylase [3]
  Peak 1 Fluorescence Intensity: 461.6
  Peak 2 Fluorescence Intensity: 58.06
α-amylase [4]
  quenching mechanism of α-amylase fluorescence: pure static quenching
  ΔH^0: -26.778 ± 0.014 kcal/mol
  ΔS^0: −259.31 ± 0.09 J/mol/k
α-amylase [4]; T 298 K
  Kq: 4.04 ± 0.01 ×10^12 L/mol/s
  Ksv: 4.04 ± 0.01 ×10^4 L/mol
  n (number of binding sites): 1.36
  ΔG^0: -8.315 ± 0.022 kcal/mol
α-amylase [4]; T 304 K
  Kq: 3.55 ± 0.08 ×10^12 L/mol/s
  Ksv: 3.55 ± 0.08 ×10^4 L/mol
  n (number of binding sites): 1.28
  ΔG^0: -7.928 ± 0.017 kcal/mol
α-amylase [4]; T 310 K
  Kq: 3.01 ± 0.07 ×10^12 L/mol/s
  Ksv: 3.01 ± 0.07 ×10^4 L/mol
  n (number of binding sites): 1.20
  ΔG^0: -7.572 ± 0.017 kcal/mol
α-glucosidase [5]; C 5 μg/mL
  Vmax: 0.1369 ± 0.0049 ΔOD/min
α-glucosidase [5]; C 25 μg/mL
  Vmax: 0.1016 ± 0.0014 ΔOD/min
α-glucosidase [5]; C 50 μg/mL
  Vmax: 0.0745 ± 0.0019 ΔOD/min
α-glucosidase [5]; C 100 μg/mL
  Vmax: 0.0516 ± 0.0017 ΔOD/min
α-glucosidase [5]; C 150 μg/mL
  Vmax: 0.0389 ± 0.0006 ΔOD/min
α-glucosidase [5]
  type of inhibition of α-glucosidase: mixed type
  reversibility of inhibition of α-glucosidase: reversible inhibition
  Kis: 52.5334 ± 0.1408 µg/mL
